{"source": "patent US10550105B2", "about": "(Ribon Therapeutics Inc., priority 2018, dated 2020)", "note": "pIC50: −log10 of the molar value.", "data": [{"biological_target": "PARP7 (Homo sapiens (Human), UniProt Q7Z3E1)", "sequence (Q7Z3E1 whole entry)": "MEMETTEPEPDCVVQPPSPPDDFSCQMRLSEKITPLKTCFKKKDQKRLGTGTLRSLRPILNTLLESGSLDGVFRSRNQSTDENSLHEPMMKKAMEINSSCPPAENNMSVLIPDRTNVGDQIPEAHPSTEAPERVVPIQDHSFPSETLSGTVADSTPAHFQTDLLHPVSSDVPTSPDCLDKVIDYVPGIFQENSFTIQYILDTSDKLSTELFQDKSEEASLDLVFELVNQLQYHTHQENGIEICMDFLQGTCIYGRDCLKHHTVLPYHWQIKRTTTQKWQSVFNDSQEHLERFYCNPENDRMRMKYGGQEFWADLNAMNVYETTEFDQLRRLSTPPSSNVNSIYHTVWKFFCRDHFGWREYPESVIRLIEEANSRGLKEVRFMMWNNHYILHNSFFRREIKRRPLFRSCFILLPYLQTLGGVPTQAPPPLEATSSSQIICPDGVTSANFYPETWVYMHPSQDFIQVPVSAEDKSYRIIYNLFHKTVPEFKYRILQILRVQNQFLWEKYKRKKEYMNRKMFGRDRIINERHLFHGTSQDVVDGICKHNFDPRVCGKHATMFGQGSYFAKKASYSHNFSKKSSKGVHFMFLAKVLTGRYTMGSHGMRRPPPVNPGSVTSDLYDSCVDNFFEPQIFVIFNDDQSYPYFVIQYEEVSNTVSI", "assay": "Enzymatic assay for inhibition of PARP7: TR-FRET displacement of biotinylated Probe A from the TIPARP active site", "format": "binding", "conditions": "Table A-1", "in_short": "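Compounds were tested as dose-response series, and reactions were incubated a further 30 min at 25° C. TR-FRET was read at 320 nm excitation with 615 and 665 nm emission after a 90 μs delay. The 665/615 ratio gave the TIPARP–Probe A complex, and % inhibition was fitted against concentration.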", "values": [{"compound": "O=C(c1cccc(OCC2c3ccccc3CN2c2cn[nH]c(=O)c2C(F)(F)F)c1)N1CCN(c2ncc(C(F)(F)F)cn2)CC1", "note": "(stereo not shown) [Example 377, 4-(Trifluoromethyl)-5-(1-((3-(4-(5-(trifluoromethyl)pyrimidin-2-yl)piperazine-1-carbonyl)phenoxy)methyl)isoindolin-2-yl)pyridazin-3(2H)-one]", "pIC50": "> 7.00"}, {"compound": "COc1cc2c(cc1F)CN(c1cn[nH]c(=O)c1C(F)(F)F)C2C", "note": "(stereo not shown) [Example 315, 5-(5-Fluoro-6-methoxy-1-methylisoindolin-2-yl)-4-(trifluoromethyl)pyridazin-3(2H)-one]", "pIC50": "6.00 to 7.00"}, {"compound": "O=c1[nH]ncc(N2Cc3ccc(OC4CCCNC4)cc3C2)c1C(F)(F)F", "note": "(stereo not shown) [Example 244, 5-(5-(Piperidin-3-yloxy)isoindolin-2-yl)-4-(trifluoromethyl)pyridazin-3(2H)-one]", "pIC50": "6.00 to 7.00"}, {"compound": "O=C(CCOCCOc1cn[nH]c(=O)c1C(F)(F)F)N1CCN(c2ncc(Cl)cn2)CC1", "note": "[Example 533, 5-(2-[3-[4-(5-Chloropyrimidin-2-yl)piperazin-1-yl]-3-oxopropoxy]ethoxy)-4-(trifluoromethyl)-2,3-dihydropyridazin-3-one]", "pIC50": "> 7.00"}, {"compound": "N#Cc1ccc(N2CCN(C(=O)CCCOCc3cccc4c3CN(c3cn[nH]c(=O)c3C(F)(F)F)C4)CC2)nc1", "note": "[Example 496, 6-(4-(4-((2-(6-Oxo-5-(trifluoromethyl)-1,6-dihydropyridazin-4-yl)isoindolin-4-yl)methoxy)butanoyl)piperazin-1-yl)nicotinonitrile]", "pIC50": "> 7.00"}, {"compound": "Cc1c(N2Cc3ccccc3C2)cn[nH]c1=O", "note": "[Example 159, 5-(Isoindolin-2-yl)-4-methylpyridazin-3(2H)-one]", "pIC50": "≤ 6.00"}, {"compound": "N#Cc1ccc(N2CCN(C(=O)c3ccc(OCCOc4cccc5c4CN(c4cn[nH]c(=O)c4C(F)(F)F)C5)cc3)CC2)nc1", "note": "[Example 43, 6-[4-([4-[2-([2-[6-oxo-5-(trifluoromethyl)-1,6-dihydropyridazin-4-yl]-2,3-dihydro-1H-isoindol-4-yl]oxy)ethoxy]phenyl]carbonyl)piperazin-1-yl]pyridine-3-carbonitrile]", "pIC50": "> 7.00"}, {"compound": "N#Cc1cnc(N2CCN(C(=O)c3cccc(OC[C@@H]4c5ccccc5CN4c4cn[nH]c(=O)c4C(F)(F)F)c3)CC2)cn1", "note": "[Example 370, (S)-5-(4-(3-((2-(6-Oxo-5-(trifluoromethyl)-1,6-dihydropyridazin-4-yl)isoindohn-1-yl)methoxy)benzoyl)piperazin-1-yl)pyrazine-2-carbonitrile]", "pIC50": "> 7.00"}, {"compound": "N#Cc1ccc(N2CCN(C(=O)[C@@H]3CNC[C@@H](OC[C@@H]4CCCN4c4cn[nH]c(=O)c4C(F)(F)F)C3)CC2)nc1", "note": "(single isomer, unassigned) [Example 56 Isomer A]", "pIC50": "> 7.00"}, {"compound": "CN(CCC(=O)N1CCN(c2ccc(C#N)cn2)CC1)C[C@H]1c2ccccc2CN1c1cn[nH]c(=O)c1C(F)(F)F", "note": "[Example 428, (R)-6-(4-(3-(Methyl((2-(6-oxo-5-(trifluoromethyl)-1,6-dihydropyridazin-4-yl)isoindolin-1-yl)methyl)amino)propanoyl)piperazin-1-yl)nicotinonitrile]", "pIC50": "6.00 to 7.00"}, {"compound": "COc1c(N2Cc3cccc(OCCO)c3C2)cn[nH]c1=O", "note": "[Example 184, 5-(4-(2-Hydroxyethoxy)isoindolin-2-yl)-4-methoxypyridazin-3(2H)-one]", "pIC50": "≤ 6.00"}, {"compound": "Cc1c(OCCOCCC(=O)N2CCN(c3ncc(Cl)cn3)CC2)cn[nH]c1=O", "note": "[Example 549, 5-(2-[3-[4-(5-Chloropyrimidin-2-yl)piperazin-1-yl]-3-oxopropoxy]ethoxy)-4-methyl-2,3-dihydropyridazin-3-one]", "pIC50": "> 7.00"}, {"compound": "O=C(C[C@H]1CC[C@H](COc2cn[nH]c(=O)c2Cl)O1)N1CCN(c2ncc(C(F)(F)F)cn2)CC1", "note": "(single isomer, unassigned) [Example 575 Isomer B]", "pIC50": "≤ 6.00"}, {"compound": "C[C@@H](CC(=O)N1CCN(c2ccc(C#N)cn2)CC1)OC[C@H](C)Oc1cn[nH]c(=O)c1C(F)(F)F", "note": "(single isomer, unassigned) [Example 576 Isomer B]", "pIC50": "> 7.00"}, {"compound": "CC1c2ccccc2CN1c1cn[nH]c(=O)c1C(F)(F)F", "note": "(stereo not shown) [Example 249, 5-(1-Methylisoindolin-2-yl)-4-(trifluoromethyl)pyridazin-3(2H)-one]", "pIC50": "6.00 to 7.00"}, {"compound": "O=c1[nH]ncc(N2Cc3c(F)ccc(OC4CCNCC4)c3C2)c1C(F)(F)F", "note": "[Example 291, 5-(4-Fluoro-7-(piperidin-4-yloxy)isoindolin-2-yl)-4-(trifluoromethyl)pyridazin-3(2H)-one]", "pIC50": "6.00 to 7.00"}, {"compound": "O=C(C[C@@H]1CC[C@@H](COc2cn[nH]c(=O)c2Cl)O1)N1CCN(c2ncc(Cl)cn2)CC1", "note": "(single isomer, unassigned) [Example 566 Isomer A]", "pIC50": "≤ 6.00"}, {"compound": "C[C@@H](COCCC(=O)N1CC=C(c2ncc(C(F)(F)F)cn2)CC1)Nc1cn[nH]c(=O)c1C(F)(F)F", "note": "[Example 652, (S)-5-((1-(3-Oxo-3-(4-(5-(trifluoromethyl)pyrimidin-2-yl)-3,6-dihydropyridin-1(2H)-yl)propoxy)propan-2-yl)amino)-4-(trifluoromethyl)pyridazin-3(2H)-one]", "pIC50": "> 7.00"}, {"compound": "O=C(C[C@@H]1CC[C@H]([C@@H]2CCCN2c2cn[nH]c(=O)c2C(F)(F)F)O1)N1CCN(c2ccc(Cl)cn2)CC1", "note": "[Example 148B, 5-[(2S)-2-[(2R,5S)-5-[2-[4-(5-chloropyridin-2-yl)piperazin-1-yl]-2-oxoethyl]oxolan-2-yl]pyrrolidin-1-yl]-4-(trifluoromethyl)-2,3-dihydropyridazin-3-one]", "pIC50": "6.00 to 7.00"}, {"compound": "N#Cc1ccc(N2CCN(C(=O)COC[C@@H]3CCCN3c3cn[nH]c(=O)c3C(F)(F)F)CC2)nc1", "note": "[Example 76, 6-[4-(2-[[(2S)-1-[6-oxo-5-(trifluoromethyl)-1,6-dihydropyridazin-4-yl]pyrrolidin-2-yl]methoxy]acetyl)piperazin-1-yl]pyridine-3-carbonitrile]", "pIC50": "> 7.00"}, {"compound": "Cc1c(OCCOCCC(=O)N2CCN(c3ncc(C(F)(F)F)cn3)CC2)cn[nH]c1=O", "note": "[Example 550, 4-Methyl-5-[2-(3-oxo-3-[4-[5-(trifluoromethyl)pyrimidin-2-yl]piperazin-1-yl]propoxy)ethoxy]-2,3-dihydropyridazin-3-one]", "pIC50": "> 7.00"}, {"compound": "CC[C@@H](COCCC(=O)N1CCN(c2ncc(C(F)(F)F)cn2)CC1)Oc1cn[nH]c(=O)c1Br", "note": "[Example 657, (S)-4-Bromo-5-((1-(3-oxo-3-(4-(5-(trifluoromethyl)pyrimidin-2-yl)piperazin-1-yl)propoxy)butan-2-yl)oxy)pyridazin-3(2H)-one]", "pIC50": "> 7.00"}, {"compound": "C[C@@H](COCCC(=O)N1CCC(Nc2ncc(C#N)s2)C1)Nc1cn[nH]c(=O)c1C(F)(F)F", "note": "(stereo partly drawn) [Example 717, 2-((1-(3-((S)-2-((6-Oxo-5-(trifluoromethyl)-1,6-dihydropyridazin-4-yl)amino)propoxy)propanoyl)pyrrolidin-3-yl)amino)thiazole-5-carbonitrile]", "pIC50": "> 7.00"}, {"compound": "O=C(c1cccc(NCC2c3ccccc3CN2c2cn[nH]c(=O)c2C(F)(F)F)c1)N1CCN(c2ccccn2)CC1", "note": "(stereo not shown) [Example 351, 5-(1-(((3-(4-(Pyridin-2-yl)piperazine-1-carbonyl)phenyl)amino)methyl)isoindolin-2-yl)-4-(trifluoromethyl)pyridazin-3(2H)-one]", "pIC50": "6.00 to 7.00"}, {"compound": "N#Cc1ccc(N2CCN(C(=O)CCCCCOc3cn[nH]c(=O)c3C(F)(F)F)CC2)nc1", "note": "[Example 512, 6-[4-(6-[[6-Oxo-5-(trifluoromethyl)-1,6-dihydropyridazin-4-yl]oxy]hexanoyl)piperazin-1-yl]pyridine-3-carbonitrile]", "pIC50": "> 7.00"}, {"compound": "O=c1[nH]ncc(N2Cc3cccc(NC4CCNCC4)c3C2)c1C(F)(F)F", "note": "[Example 297, 5-(4-(Piperidin-4-ylamino)isoindolin-2-yl)-4-(trifluoromethyl)pyridazin-3(2H)-one]", "pIC50": "6.00 to 7.00"}, {"compound": "N#Cc1ccc(N2CCN(C(=O)c3ccc(OC[C@@H]4c5ccccc5CN4c4cn[nH]c(=O)c4C(F)(F)F)cc3)CC2)nc1", "note": "(single isomer, unassigned) [Example 35 Isomer A]", "pIC50": "≤ 6.00"}, {"compound": "COC[C@H](CO[C@H](C)CC(=O)N1CCN(c2ccc(C#N)cn2)CC1)Oc1cn[nH]c(=O)c1C(F)(F)F", "note": "(single isomer, unassigned) [Example 571 Isomer A]", "pIC50": "> 7.00"}, {"compound": "NCCOc1cnc2c(c1)CN(c1cn[nH]c(=O)c1C(F)(F)F)C2", "note": "[Example 334, 5-(3-(2-Aminoethoxy)-5,7-dihydro-6H-pyrrolo[3,4-b]pyridin-6-yl)-4-(trifluoromethyl)pyridazin-3(2H)-one]", "pIC50": "6.00 to 7.00"}, {"compound": "C[C@@H](COCCC(=O)N1CCN(c2ncc(C#N)s2)CC1)Oc1cn[nH]c(=O)c1C(F)(F)F", "note": "[Example 711, (S)-2-(4-(3-(2-((6-Oxo-5-(trifluoromethyl)-1,6-dihydropyridazin-4-yl)oxy)propoxy)propanoyl)piperazin-1-yl)thiazole-5-carbonitrile]", "pIC50": "> 7.00"}, {"compound": "NCc1ccc2c(c1)CN(c1cn[nH]c(=O)c1C(F)(F)F)C2", "note": "[Example 322, 5-(5-(Aminomethyl)isoindolin-2-yl)-4-(trifluoromethyl)pyridazin-3(2H)-one]", "pIC50": "6.00 to 7.00"}, {"compound": "O=C(CCOCCNc1cn[nH]c(=O)c1C(F)(F)F)N1CCN(c2ncc(C(F)(F)F)cn2)CC1", "note": "[Example 505, 5-[[2-(3-Oxo-3-[4-[5-(Trifluoromethyl)pyrimidin-2-yl]piperazin-1-yl]propoxy)ethyl]amino]-4-(trifluoromethyl)-2,3-dihydropyridazin-3-one]", "pIC50": "> 7.00"}, {"compound": "N#Cc1cnc(N2CCN(C(=O)c3cccc(OCC4c5ccccc5CN4c4cn[nH]c(=O)c4C(F)(F)F)c3)CC2)nc1", "note": "(stereo not shown) [Example 361, 2-(4-(3-((2-(6-Oxo-5-(trifluoromethyl)-1,6-dihydropyridazin-4-yl)isoindolin-1-yl)methoxy)benzoyl)piperazin-1-yl)pyrimidine-5-carbonitrile]", "pIC50": "> 7.00"}, {"compound": "N#Cc1ccc(N2CCN(C(=O)c3cccc(OCCOC[C@@H]4CCN(c5cn[nH]c(=O)c5C(F)(F)F)C4)c3)CC2)nc1", "note": "[Example 470, (R)-6-(4-(3-(2-((1-(6-Oxo-5-(trifluoromethyl)-1,6-dihydropyridazin-4-yl)pyrrolidin-3-yl)methoxy)ethoxy)benzoyl)piperazin-1-yl)nicotinonitrile]", "pIC50": "> 7.00"}]}]}
